Positions count from the first letter of the chain named.
Tests used:
Assay type in all cases: cell-based
TWIK1 (K2P1.1/KCNK1) [1] = target: T1, TWIK1 (K2P1.1/KCNK1) (Homo sapiens, UniProt O00180, S224A); assay: whole-cell patch clamp, transiently transfected HEK293, Hill fit
T1 construct: full-length cDNA (OriGene) in pcDNA3.1(neo+), stably expressed in HEK293; mutants transiently transfected in HEK293 with CD8; homodimer
T1 sequence (O00180 1-336 S224A): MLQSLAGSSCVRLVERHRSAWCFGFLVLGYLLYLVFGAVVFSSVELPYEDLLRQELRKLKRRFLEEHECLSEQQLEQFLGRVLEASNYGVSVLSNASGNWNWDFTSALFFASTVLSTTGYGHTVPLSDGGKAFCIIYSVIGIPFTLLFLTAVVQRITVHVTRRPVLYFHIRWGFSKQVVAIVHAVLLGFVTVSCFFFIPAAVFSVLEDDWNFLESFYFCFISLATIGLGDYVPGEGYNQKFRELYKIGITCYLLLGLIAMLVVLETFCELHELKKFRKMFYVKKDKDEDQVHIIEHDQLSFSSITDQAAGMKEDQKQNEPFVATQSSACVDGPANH

TWIK1 (K2P1.1/KCNK1) [2] = target: T2, TWIK1 (K2P1.1/KCNK1) (Homo sapiens, UniProt O00180, L223A); assay: as above
T2 construct: full-length cDNA (OriGene) in pcDNA3.1(neo+), stably expressed in HEK293; mutants transiently transfected in HEK293 with CD8; homodimer
T2 sequence (O00180 1-336 L223A): T1 sequence (O00180 1-336 S224A) with L223A, A224S

TWIK1 (K2P1.1/KCNK1) [3] = target: T3, TWIK1 (K2P1.1/KCNK1) (Homo sapiens, UniProt O00180, T225A); assay: as above
T3 construct: full-length cDNA (OriGene) in pcDNA3.1(neo+), stably expressed in HEK293; mutants transiently transfected in HEK293 with CD8; homodimer
T3 sequence (O00180 1-336 T225A): T1 sequence (O00180 1-336 S224A) with A224S, T225A

TWIK1 (K2P1.1/KCNK1) [4] = target: T4, TWIK1 (K2P1.1/KCNK1) (Homo sapiens, UniProt O00180, I140A); assay: as above
T4 construct: full-length cDNA (OriGene) in pcDNA3.1(neo+), stably expressed in HEK293; mutants transiently transfected in HEK293 with CD8; homodimer
T4 sequence (O00180 1-336 I140A): T1 sequence (O00180 1-336 S224A) with I140A, A224S

TWIK1 (K2P1.1/KCNK1) [5] = target: T5, TWIK1 (K2P1.1/KCNK1) (Homo sapiens, UniProt O00180); assay: whole-cell patch clamp, HEK293-TWIK1 stable line, Hill fit
T5 construct: full-length cDNA (OriGene) in pcDNA3.1(neo+), stably expressed in HEK293; mutants transiently transfected in HEK293 with CD8; homodimer
T5 sequence (O00180 1-336): T1 sequence (O00180 1-336 S224A) with A224S

TWIK1 (K2P1.1/KCNK1) [6] = target: T6, TWIK1 (K2P1.1/KCNK1) (Homo sapiens, UniProt O00180, G229A); assay: whole-cell patch clamp, transiently transfected HEK293, Hill fit
T6 construct: full-length cDNA (OriGene) in pcDNA3.1(neo+), stably expressed in HEK293; mutants transiently transfected in HEK293 with CD8; homodimer
T6 sequence (O00180 1-336 G229A): T1 sequence (O00180 1-336 S224A) with A224S, G229A

## C=CCc1ccc(O)c(-c2cc(CC=C)ccc2O)c1 [magnolol]
TWIK1 (K2P1.1/KCNK1) [1]
  IC50: 7.43 ± 3.2 µM
TWIK1 (K2P1.1/KCNK1) [2]
  IC50: 9.55 ± 1.62 µM
TWIK1 (K2P1.1/KCNK1) [3]
  IC50: 21.8 ± 7.93 µM
TWIK1 (K2P1.1/KCNK1) [4]
  IC50: 10.2 ± 1.07 µM
TWIK1 (K2P1.1/KCNK1) [5]
  IC50: 6.21 ± 0.13 µM
TWIK1 (K2P1.1/KCNK1) [6]
  IC50: 20.8 ± 3.2 µM

From PMC10574557, “The Inhibitory Effect of Magnolol on the Human TWIK1 Channel Is Related to G229 and T225 Sites” (Molecules, 2023)
